Test results published in US20230019094A1, “NOVEL COMPOUND AND PHARMACEUTICAL COMPOSITION FOR PREVENTION OR TREATMENT OF CANCER COMPRISING SAME” (HOLOSMEDIC, priority 2019, published 2023).

Legend:
Type in all cases: cell-based
SKOV3-TR [1] = assay: Crystal violet staining, cell survival rate and cell count, resistant line; conditions: 3 days; for anticancer-enhancing effect of doxetaxel, optical density at 570 nm (crystal violet) / anticancer-enhancing effect of paclitaxel, optical density at 570 nm (crystal violet): S-form 0.5 μM or 2 μM pretreated 4 hours; for anticancer-enhancing effect of doxetaxel, optical density at 570 nm (crystal violet): then 0.9 μM doxetaxel, compared to doxetaxel+ethanol group; for anticancer-enhancing effect of paclitaxel, optical density at 570 nm (crystal violet): then 4 μM paclitaxel, compared to paclitaxel+ethanol group; for optical density at 570 nm (crystal violet), anticancer drug alone: 4 μM paclitaxel or 0.9 μM doxetaxel, compared to None or DMSO-treated groups
Method: (§1) The two cancer cell lines growing on a 12-well plate were pretreated with 102 S-forms at a low concentration (0.5 μM) and a high concentration (2 μM) for 4 hours, and the SKOV3-TR cell line was then treated with 4 μM paclitaxel, and the SKOV3 cell line was treated with 0.05 μM paclitaxel. For the morphological analysis of the cells, the cells treated with None (a group that was treated with nothing), DMSO (a paclitaxel solvent), ethanol (EtOH) (an S-form solvent), DMSO+EtOH, paclitaxel, paclitaxel+ethanol (Pacli+EtOH), and 102 S-forms were analyzed after 1, 2, and 3 days, and images were captured. For cellular metabolism analysis, WST-1 analyses were performed after 3 days of the combined treatment with paclitaxel and S-forms. The cell survival rates were analyzed on the same experimental groups using a crystal violet staining method.
(§2) The two cell lines growing on a 12-well plate were pretreated with an S-form at a low concentration (0.5 μM) and a high concentration (2 μM) for 4 hours, and the SKOV3-TR cell line was then treated with 0.9 μM doxetaxel, and the SKOV3 cell line was treated with 0.5 μM doxetaxel. For the morphological analysis of the cells, the cells treated with None (a group that was treated with nothing), DMSO (a doxetaxel solvent), ethanol (EtOH) (an S-form solvent), DMSO+EtOH, doxetaxel, doxetaxel+ethanol (Doxetaxel+EtOH), and S-forms were analyzed after 1, 2, and 3 days, and images were captured. For cellular metabolism analysis, WST-1 analyses were performed after 3 days of the combined treatment with doxetaxel and S-forms. The cell survival rates were analyzed on the same experimental groups using a crystal violet staining method.
Based on the crystal violet staining in which the cell survival rates and the cell counts were analyzed, a decrease in cell counts in SKOV3-TR and SKOV3 by treatment with paclitaxel was induced through a decrease in cell survival rate. […] The crystal violet staining results of SKOV3-TR by treatment with paclitaxel are shown in FIG. 11, and the crystal violet staining results of SKOV3 are shown in FIG. 12. The crystal violet staining results of SKOV3-TR by treatment with doxetaxel are shown in FIG. 25, and the crystal violet staining results of SKOV3 are shown in FIG. 26.
The optical densities at 570 nm were reduced with the decreasing cell counts in the paclitaxel-treated groups due to the phenomena such as the induction of cell death and the inhibition of cell growth in SKOV3-TR and SKOV3, compared to the None or DMSO-treated groups. […] Also, it can be seen that the dose-response relationship was satisfied because a decrease in cell survival rate by paclitaxel in SKOV3-TR was further promoted at a high concentration (2 μM) of the S-forms as compared to a low concentration (0.5 μM) of the S-forms. For the purpose of analysis, images of the 102 experimental groups after the cell lines were stained with crystal violet were captured after 3 days of the treatment. The staining degree was determined by ELISA by measuring the optical densities at 570 nm through dye elution as in the WST-1 analysis. During the ELISA analysis, the baseline was applied to the optical density of the paclitaxel+ethanol (Pacli+EtOH)-treated group as the control group. The optical density results of SKOV3-TR by treatment with the 102 S-forms and the optical density results of SKOV3 by treatment with the 102 S-forms are shown in FIGS. 13 to 20.
The optical densities at 570 nm were reduced with the decreasing cell counts in the doxetaxel-treated groups due to the phenomena such as the induction of cell death and the inhibition of cell growth in SKOV3-TR and SKOV3, compared to the None or DMSO-treated groups. […] Also, it can be seen that the dose-response relationship was satisfied because a decrease in cell survival rate by doxetaxel in SKOV3-TR was further promoted at a high concentration (2 μM) of the S-forms as compared to a low concentration (0.5 μM) of the S-forms. […]

SKOV3-TR [2] = assay: WST-1 analysis of cellular metabolism, resistant line; conditions: 4 μM paclitaxel or 0.9 μM doxetaxel, 3 days, compared to None or DMSO-treated groups
Method: (§3) A cell experiment was performed on an epithelial ovarian cancer cell line SKOV3 and SKOV3-TR which is derived therefrom and produced as a resistant cancer cell line to having resistance to the anticancer drug paclitaxel.
as §1, with “For cellular metabolism analysis, WST-1 analyses were performed after 3 days of the combined treatment with paclitaxel and S-forms.” left out
(§4) The two cell lines growing on a 12-well plate were pretreated with an S-form at a low concentration (0.5 μM) and a high concentration (2 μM) for 4 hours, and the SKOV3-TR cell line was then treated with 0.9 μM doxetaxel, and the SKOV3 cell line was treated with 0.5 μM doxetaxel. […] The cell survival rates were analyzed on the same experimental groups using a crystal violet staining method. […]

SKOV3 [3] = assay: WST-1 analysis of cellular metabolism, parental line; conditions: 0.05 μM paclitaxel or 0.5 μM doxetaxel, 3 days, compared to None or DMSO-treated groups
Method: as §3
as §1, with “For cellular metabolism analysis, WST-1 analyses were performed after 3 days of the combined treatment with paclitaxel and S-forms.” left out
as §4

SKOV3 [4] = assay: Crystal violet staining, cell survival rate and cell count, parental line; conditions: 0.05 μM paclitaxel or 0.5 μM doxetaxel, 3 days, compared to None or DMSO-treated groups
Method: as §1, with “For cellular metabolism analysis, WST-1 analyses were performed after 3 days of the combined treatment with paclitaxel and S-forms.” left out
as §2, with “For cellular metabolism analysis, WST-1 analyses were performed after 3 days of the combined treatment with doxetaxel and S-forms. The cell survival rates were analyzed on the same experimental groups using a crystal violet staining method.” left out

| SMILES | anticancer-enhancing effect of doxetaxel, optical density at 570 nm (crystal violet) (SKOV3-TR [1]) | anticancer-enhancing effect of paclitaxel, optical density at 570 nm (crystal violet) (SKOV3-TR [1]) | optical density at 570 nm (crystal violet), anticancer drug alone (SKOV3-TR [1]) | optical density at 450 nm (WST-1), anticancer drug alone (SKOV3-TR [2]) | optical density at 450 nm (WST-1), anticancer drug alone (SKOV3 [3]) | optical density at 570 nm (crystal violet), anticancer drug alone (SKOV3 [4]) |
| --- | --- | --- | --- | --- | --- | --- |
| CCc1sc2ccccc2c1CN1CCN2C(=O)CNC(=O)C2C1 (stereo not drawn) [S101, 2-((2-ethylbenzothiophene-3-yl)methyl)hexahydro-2H-pyrazino[1,2-a]pyrazine-6,9-dione] | exhibited the anticancer-enhancing effect | exhibited the anticancer-enhancing effect | – | – | – | – |
| CCc1sc2ccccc2c1CN1CCN2C(=O)C(C3CCCCC3)NC(=O)C2C1 (stereo not drawn) [S105] | exhibited the anticancer-enhancing effect | exhibited the anticancer-enhancing effect | – | – | – | – |
| CC(=O)O[C@@]12CO[C@@H]1C[C@H](O)[C@@]1(C)C(=O)[C@H](O)C3=C(C)[C@@H](OC(=O)[C@H](O)[C@@H](NC(=O)OC(C)(C)C)c4ccccc4)C[C@@](O)([C@@H](OC(=O)c4ccccc4)[C@H]21)C3(C)C [doxetaxel] | – | – | reduced | reduced | reduced | reduced |
| CC(=O)O[C@H]1C(=O)[C@@]2(C)[C@H]([C@H](OC(=O)c3ccccc3)[C@]3(O)C[C@H](OC(=O)[C@H](O)[C@@H](NC(=O)c4ccccc4)c4ccccc4)C(C)=C1C3(C)C)[C@]1(OC(C)=O)CO[C@@H]1C[C@@H]2O [paclitaxel] | – | – | reduced | reduced | reduced | reduced |
